Read-outs that look alike come from different tables or passages of the source.
What was measured:
[1] = tested on: Jurkat T-leukemia cells; test: Cell cycle analysis, PI staining, FACS; type: cell-based, human; conditions: 30 µM, 24 h
Procedure: To reveal potential mechanisms of cell death induction, selected CK2-HDAC inhibitors were tested in a PI staining assay. […] However, this effect was masked for high doses of DMAT-hydroxamate derivatives (30 µM) due to their strong proapoptotic activity, leading to appearance of > 80% cells in pre-G1 phase (apoptotic). Thus, lower concentrations of 11b–d (2 µM and 5 µM) had to be addressed in order to observe their inhibitory effect on cell cycling. […] As G1/S cell arrest is considered a typical feature of HDAC inhibitors, including SAHA [79], the observed phenomenon is yet another confirmation of HDAC targeting by these novel dual inhibitors in cell culture.
Cell cycle of the analyzed cells was assessed according to protocol described by Walker et al.. After drug treatment, 2 × 10^6 cells were collected, pelleted by spinning at 1,000 rpm, 4 °C for five minutes, resuspended in 1 mL of cold PBS and fixed by adding drop by drop 4 mL of −20 °C absolute ethanol. On the next day, fixed cells were centrifuged again and cell pellets were resuspended in 1 mL of PBS. Then 100 µL of 200 µg/mL DNase-free, RNase A (Invitrogen, USA) was added to cell suspension and incubated at 37 °C for 30 minutes. After this 100 µL of 1 mg/mL propidium iodide was added to samples, which were incubated at room temperature for 5–10 min and then analyzed on FACScan flow cytometer (Becton Dickinson, USA). Cell cycle analysis was carried out using the Cytomation Summit Software v3.1 (Cytomation Inc., USA).

[2] = tested on: Jurkat T-leukemia cells; test: Cytotoxicity, trypan blue exclusion assay, 24 h; conditions: Homo sapiens
Procedure: (§1) Walter Berger, Institute of Cancer Research, Vienna Medical University. Human embryonal kidney cells of HEK293 line were obtained from cell culture collection of R.E. Kavetsky Institute of Experimental Pathology, Oncology and Radiobiology, National Academy of Sciences of Ukraine (Kyiv, Ukraine).
(§2) Cells were seeded (5 × 10^5/mL for leukemia cells and 1 × 10^5/mL for carcinoma cells) into 24-well tissue culture plates (Greiner Bio-one, Frickenhausen, Germany) and were permitted to adhere and grow for 24 h before the experiment. Short-term (24 h) cytotoxic effect of antitumor drugs was studied under the Evolution 300 Trino microscope (Delta Optical, Nowe Osiny, Poland) after cell staining with trypan blue dye (0.1%).
(§3) Final concentration of DMSO in cell culture was 0.5% or less.
(§4) All experiments were performed in triplicate and repeated three times. Statistical analysis of data was conducted in GraphPad Prism 7.0 Software (GraphPad Software, Inc.) using Student’s t test. Statistical significance was set at P ≤ 0.05. Evaluation of LC50 values of each compound was done by built-in functions of GraphPad Prism (non-linear regression, curve fit, [Inhibitor] vs. normalized response - Variable slope).

[3] = tested on: breast adenocarcinoma cells of MCF-7 line; test: Cytotoxicity, trypan blue exclusion assay, 24 h; conditions: Homo sapiens
Procedure: as §1, §2, §3, §4

[4] = tested on: Jurkat T-leukemia cells; test: Annexin V-PI double staining, FACS; type: cell-based, human; conditions: 10 µM and 30 µM, 24 h, comparison between compounds
Procedure: To confirm the pro-apoptotic activity of the studied inhibitors, Annexin V-PI double staining was addressed (Figure 7 down).
For cell death analyses, cells were stained with FITC-conjugated annexin V and propidium iodide (PI) using an apoptosis detection kit (BD Biosciences, San Jose, CA), according to the manufacturer’s instructions. In particular, 24 h after the addition of various concentration of CK2-HDAC inhibitors, Jurkat T-leukemia cells were centrifuged at 2,000 rpm, washed twice with 1x PBS, and incubated for 15 minutes in Annexin V binding buffer (BD Pharmingen, USA) containing 1/50 volume of FITC-conjugated Annexin V solution and PI (50 µg/mL). Then samples were diluted two times by appropriate volume of Annexin V binding buffer (BD Pharmingen, USA) and immediately measured on FL1/FL2 (FITC-PI) channels of FACScan flow cytometer (Becton Dickinson, USA). Analysis of the obtained results was carried out using the Cytomation Summit Software v3.1 (Cytomation Inc., USA).

[5] = tested on: HL-60, HL-60/adr and HL-60/vinc leukemia cells; test: DCFDA assay, hydrogen peroxide production; type: cell-based, human; conditions: 10 µM and 30 µM, 24 h
Text: To reveal potential mechanisms underlying this phenomenon, we studied the impact of the selected compounds on ROS production in both sensitive and MDR cell lines (Figure S8). […] As mitochondria are considered the main source of cellular superoxides, the next aim of our studies was to check whether CK2-HDAC inhibitors induce oxidative stress in tumor cells via depolarization of mitochondria, using the JC-1 assay. However, it was technically impossible to measure JC-1 accumulation on HL-60/adr and HL-60/vinc cells, because JC-1 is a substrate for these ABC-transporter proteins and is actively pumped out into extracellular medium.
Cellular ROS contents were measured by incubating control or drug-treated cells with fluorescent dyes dihydrodichlorofluorescein diacetate (DCFDA, detecting mainly H2O2) and dihydroethidium (DHE, O2^●−-specific) in concentrations of 10 μM at 37 °C for 30 minutes. After incubation with the dyes, cells were washed with PBS and immediately analyzed at FL1 (DCFDA) or FL2 channel (DHE) of FACSCalibur flow cytometer (BD Biosciences, San Jose, CA).

[6] = 24 h, read-out: LC50 Values of Compounds for Cell Line, Jurkat
[7] = read-out: LC50 values of compounds for cell line, Jurkat
[8] = MCF7, 24 h, read-out: LC50 Values of Compounds for Cell Line, MCF-7

| SMILES | cells in pre-G1 phase (apoptotic) [1] | CC50 [2, 6] [µM] | CC50 [2, 7] [µM] | CC50 [3, 8] [µM] | number of annexin V-positive (apoptotic) cells [4] | impact on hydrogen peroxide production [5] | CC50 ([3]; MCF7, read-out: LC50 values of compounds for cell line, MCF-7) [µM] |
| --- | --- | --- | --- | --- | --- | --- | --- |
| O=C(NO)c1ccc(Cn2nc3c(Br)c(Br)c(Br)c(Br)c3n2)cc1 [Compound 15a, N-Hydroxy-4-((tetrabromo-2H-benzo[d][1,2,3]triazol-2-yl)methyl)benzamide] | increased insignificantly | 43.6 ± 16.7 | > 30 | 13.7 ± 2.67 | – | – | – |
| CN(C)c1nc2c(Br)c(Br)c(Br)c(Br)c2n1Cc1ccc(C(=O)NO)cc1 [Compound 19, N-Hydroxy-4-((4,5,6,7-tetrabromo-2-(dimethylamino)-1H-benzo[d]imidazol-1-yl)methyl)benzamide] | increased insignificantly | 24.9 ± 3.8 | 21.8 | 13.6 ± 0.78 | – | – | – |
| CN(C)c1nc2c(Br)c(Br)c(Br)c(Br)c2n1CCc1cn(CCC(=O)NO)nn1 [Compound 7c, N-Hydroxy-3-(4-(2-(4,5,6,7-tetrabromo-2-(dimethylamino)-1H-benzo[d]imidazol-1-yl)ethyl)-1H-1,2,3-triazol-1-yl)propanamide] | increased insignificantly | 16.5 ± 2.33 | 10.7 | 27.8 ± 6.06 | significant decrease | hydrogen peroxide burst | 15.7 |

Source: article PMC7180456, “Multitarget Anticancer Agents Based on Histone Deacetylase and Protein Kinase CK2 Inhibitors” (Molecules, 2020)
